Measurements published in patent US20230191357A1, “SYSTEM AND METHOD FOR ENHANCING THE REACTION POTENTIAL OF PRODUCTS GENERATED FROM IONIZATION, PHOTON-ENHANCED THERMIONIC EMISSION, MULTI PHOTON ABSORPTION, PHOTOOXIDATION, PHOTOCATALYTIC, AND PHOTOCHEMICAL REACTIONS WITH OXIDIZING AGENTS” (Bis Science LLC, priority 2021, published 2023).
Where “and” joins values, the source holds several entries; their conditions need not be identical. Equal entries are not always repeated.

Columns and labels:
Type in all cases: cell-based
[1] = test system: viable cells (microbial counts); experiment: Independent lab testing of the HVAC antimicrobial system utilizing Photon Augmented Oxidizing Agents (coupons, ambient air); conditions: 1 part per million, 5 minute contact time with the ambient air
From the text: All test samples were compared against the Control provided. (Independent lab testing of the HVAC antimicrobial system utilizing Photon Augmented Oxidizing Agents).

[2] = test system: Staphylococcus aureus ATCC 6538; experiment: Hydrogen peroxide exposed or not exposed to photons applied to inoculated target microbes; conditions: contact time 5 Minutes; for CFU/ml: single replicates
Method: The test substances were hydrogen peroxide at 1 ppm and at 0.3%, which were exposed or not exposed to photons of 0.01 nm through 845 nm and applied to target of microbes, which included a carrier for the inoculated target microbes such as agar with a viable bacteria concentration of Staphylococcus aureus ATCC 6538. The control for this test was a similar inoculated plate and it was treated in the same manor but there was no application of photons to the oxidizing agent.

[3] = test system: E. coli ATCC 11229; experiment: Carrier test of residual antimicrobial effect, 4 weeks post photon exposure; conditions: contact time 10 Minutes, 4 weeks post exposure to radiation

OO [standard hydrogen peroxide, hydrogen peroxide]
microbial reduction [1]: little or no microbial reduction

OO [1 PPM No photon emission, hydrogen peroxide]
Average CFU/ml [2]: 4.05E+06 CFU/ml | Average Log10 Reduction Compared to Controls [2]: No Reduction | Average Percent Reduction Compared to Controls [2]: No Reduction | CFU/ml [2]: 4.10E+06 CFU/ml

OO [Control Substance, hydrogen peroxide]
Average Log10 Reduction Compared to Controls [3]: 0.11 Log10 | Average Percent Reduction Compared to Controls [3]: 23.08% | CFU/Carrier [3]: 3.00E+04 CFU/Carrier | Average Percent Reduction Compared to Controls ([3]; listed as control substance): 23.08%

OO [0.3% No photon emission, hydrogen peroxide]
Average CFU/ml [2]: 4.05E+06 CFU/ml | Average Log10 Reduction Compared to Controls [2]: No Reduction | Average Percent Reduction Compared to Controls [2]: No Reduction | CFU/ml [2]: 4.10E+06 CFU/ml and 4.00E+06 CFU/ml
